Patent publication US9682925B2, “Cyclopropaneamine compound” (TAKEDA PHARMACEUTICAL COMPANY LIMITED, priority 2011, dated 2017)
Where a name gives a salt, the structure may show the parent alone.

How the values were obtained:
Format in all cases: biochemical
MAO-A = target: T1, MAO-A (Homo sapiens, UniProt P21397); test: Measurement of MAO-A inhibitory activity (MAO-Glo Assay)
T1 construct: purchased Sigma-Aldrich Co. LLC
T1 sequence (P21397 1-527): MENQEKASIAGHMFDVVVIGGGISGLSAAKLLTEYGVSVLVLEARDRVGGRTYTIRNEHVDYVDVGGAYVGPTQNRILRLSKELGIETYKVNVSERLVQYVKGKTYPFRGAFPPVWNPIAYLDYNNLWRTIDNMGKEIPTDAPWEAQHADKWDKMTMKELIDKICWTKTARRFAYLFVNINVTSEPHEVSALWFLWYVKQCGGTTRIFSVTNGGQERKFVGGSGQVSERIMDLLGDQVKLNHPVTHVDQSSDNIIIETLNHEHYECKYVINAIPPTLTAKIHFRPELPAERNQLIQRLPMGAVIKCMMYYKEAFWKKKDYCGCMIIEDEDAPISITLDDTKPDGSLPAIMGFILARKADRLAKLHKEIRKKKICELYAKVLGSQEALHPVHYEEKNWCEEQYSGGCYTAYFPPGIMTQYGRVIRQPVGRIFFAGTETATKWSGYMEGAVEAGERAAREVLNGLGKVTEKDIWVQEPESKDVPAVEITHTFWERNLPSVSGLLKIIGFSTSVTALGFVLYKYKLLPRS
Outline: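 Luminescent MAO-Glo read-out: % inhibition computed from counts relative to enzyme-only control and enzyme-free blank. Compound and 400 ng MAO-A in HEPES pH 7.5 with 5% glycerol stood 10 min at room temperature before MAO substrate (160 μM stock) started a 60 min reaction.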

MAO-B = target: T2, MAO-B (Homo sapiens, UniProt P27338); test: Measurement of MAO-B inhibitory activity (MAO-Glo Assay)
T2 construct: purchased Sigma-Aldrich Co. LLC
T2 sequence (P27338 1-520): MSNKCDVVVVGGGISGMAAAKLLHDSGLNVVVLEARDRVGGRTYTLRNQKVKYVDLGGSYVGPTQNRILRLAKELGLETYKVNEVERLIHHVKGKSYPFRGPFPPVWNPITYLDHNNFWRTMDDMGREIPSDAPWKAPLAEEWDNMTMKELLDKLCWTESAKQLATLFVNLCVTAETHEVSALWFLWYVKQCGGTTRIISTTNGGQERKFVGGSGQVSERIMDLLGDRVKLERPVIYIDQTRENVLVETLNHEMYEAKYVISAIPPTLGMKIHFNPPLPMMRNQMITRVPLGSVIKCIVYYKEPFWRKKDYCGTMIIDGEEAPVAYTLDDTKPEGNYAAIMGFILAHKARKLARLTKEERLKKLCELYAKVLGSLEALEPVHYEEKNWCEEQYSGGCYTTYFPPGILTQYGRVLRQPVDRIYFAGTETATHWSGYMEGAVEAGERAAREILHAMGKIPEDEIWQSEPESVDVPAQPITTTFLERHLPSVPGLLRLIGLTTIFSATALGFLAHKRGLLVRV
Outline: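 Percent inhibition was calculated from luciferin-based luminescence, corrected with a blank lacking enzyme and a control lacking compound. The reaction ran 60 min at room temperature after adding MAO substrate (16 µM as added). This followed a 10 min compound–enzyme preincubation in HEPES pH 7.5 buffer.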

human LSD1(171-852) = target: T3, human LSD1(171-852) (Homo sapiens, UniProt O60341); test: Measurement of LSD1 inhibitory activity (time-resolved fluorescence, biotin-histone H3 mono methylated K4 peptide); settings: read-out: LSD1 IC50 value
T3 construct: to give hLSD1(171-852) purified product; made in house; host or cells: Escherichia coli C43(DE3) pLysS

SMILES | IC50 (MAO-A) [µM] | IC50 (MAO-B) [µM] | IC50 (human LSD1(171-852)) [µM]
O=C(Nc1ccc([C@@H]2C[C@H]2NCc2c[nH]cn2)cc1)c1ccc(-c2ccccc2)cc1 (relative stereo) [Example 66, N-(4-{trans-2-[(1H-imidazol-4-ylmethyl)amino]cyclopropyl}phenyl)biphenyl-4-carboxamide dihydrochloride] | > 10 | > 10 | < 0.1
O=C(Nc1ccc([C@@H]2C[C@H]2NCc2cc3cccnc3s2)cc1)c1cccc(C(F)(F)F)c1 (relative stereo) [Example 161, N-(4-{trans-2-[(thieno[2,3-b]pyridin-2-ylmethyl)amino]cyclopropyl}phenyl)-3-(trifluoromethyl)benzamide hydrochloride] | 4.1 | > 10 | < 0.1
Cc1ccc(C(=O)Nc2ccc([C@@H]3C[C@H]3NCC3CC3)cc2)cc1C (relative stereo) [Example 105, N-(4-{trans-2-[(cyclopropylmethyl)amino]cyclopropyl}phenyl)-3,4-dimethylbenzamide hydrochloride] | > 10 | > 10 | < 0.1
Cn1ncc(C(=O)Nc2ccc([C@@H]3C[C@H]3NCC3CC3)cc2)c1C(F)(F)F (relative stereo) [Example 159, N-(4-{trans-2-[(cyclopropylmethyl)amino]cyclopropyl}phenyl)-1-methyl-5-(trifluoromethyl)-1H-pyrazole-4-carboxamide hydrochloride] | > 10 | > 10 | < 0.1
CN1CCC(N[C@@H]2C[C@H]2c2ccc(NC(=O)c3ccc(-c4ccccc4)cc3)cc2)CC1 (relative stereo) [Example 50, N-(4-{trans-2-[(1-methylpiperidin-4-yl)amino]cyclo-propyl}phenyl)-biphenyl-4-carboxamide] | > 10 | > 10 | < 0.1
O=C(Nc1ccc([C@@H]2C[C@H]2NCc2cscn2)cc1)c1cccc(C(F)(F)F)c1 (relative stereo) [Example 72, N-(4-{trans-2-[(1,3-thiazol-4-ylmethyl)amino]cyclopropyl}phenyl)-3-(trifluoromethyl)benzamide dihydrochloride] | 3.1 | > 10 | < 0.1
O=C(Nc1ccc([C@@H]2C[C@H]2NC2CCCCCC2)cc1)c1ccccc1 (relative stereo) [Example 23, N-{4-[trans-2-(cycloheptyl-amino)cyclo-propyl]phenyl}-benzamide] | > 10 | > 10 | < 0.1
O=C(Nc1ccc([C@@H]2C[C@H]2NCC2CC2)cc1)c1n[nH]c2ccccc12 (relative stereo) [Example 128, N-(4-{trans-2-[(cyclopropyl-methyl)amino]cyclo-propyl}phenyl)-1H-indazole-3-carboxamide] | 5.3 | > 10 | < 0.1
O=C(Nc1ccc([C@@H]2C[C@H]2NCc2ccccc2F)cc1)c1cccc(C(F)(F)F)c1 (relative stereo) [Example 67, N-(4-{trans-2-[(2-fluorobenzyl)amino]cyclopropyl}phenyl)-3-(trifluoromethyl)benzamide hydrochloride] | > 10 | > 10 | < 0.1
O=C(Nc1ccc([C@@H]2C[C@H]2NCc2ccccc2)cc1)c1cccc(OCc2ccccc2)c1 (relative stereo) [Example 11, N-{4-[trans-2-(benzylamino)cyclopropyl]phenyl}-3-(benzyloxy)benzamide hydrochloride] | 2.4 | > 10 | 0.15
Cc1cc(C2CC2NCC2CC2)ccc1NC(=O)c1ccccc1 (stereo not drawn) [Example 81, N-(4-{trans-2-[(cyclopropylmethyl)amino]cyclopropyl}-2-methylphenyl)benzamide hydrochloride] | > 10 | > 10 | < 0.1
O=C(Nc1ccc([C@@H]2C[C@H]2NCC2CC2)cc1)c1cccc(-n2ccnc2)c1 (relative stereo) [Example 148, N-(4-{trans-2-[(cyclopropylmethyl)amino]cyclopropyl}phenyl)-3-(1H-imidazol-1-yl)benzamide hydrochloride] | 8.3 | > 10 | < 0.1
CN(C)c1ccccc1CN[C@@H]1C[C@H]1c1ccc(NC(=O)c2cccc(C(F)(F)F)c2)cc1 (relative stereo) [Example 142, N-{4-[trans-2-{[2-(dimethylamino)benzyl]amino}cyclopropyl]phenyl}-3-(trifluoromethyl)benzamide hydrochloride] | > 10 | > 10 | 0.1
O=C(Nc1ccc([C@@H]2C[C@H]2NCC2CC2)cc1)c1c[nH]c2ccccc12 (relative stereo) [Example 127, N-(4-{trans-2-[(cyclopropyl-methyl)amino]cyclo-propyl}phenyl)-1H-indole-3-carboxamide] | > 10 | > 10 | 0.1
O=C1c2ccccc2C(=O)N1c1ccc([C@@H]2C[C@H]2NCC2CC2)cc1 (relative stereo) [Example 143, 2-(4-{trans-2-[(cyclopropylmethyl)amino]cyclopropyl}phenyl)-1H -isoindole-1,3(2H)-dione hydrochloride] | 4.5 | > 10 | < 0.1
O=C(N[C@H](Cc1ccccc1)C(=O)Nc1ccc(C2CC2NCc2ccccc2)cc1)OCc1ccccc1 (stereo in doubt) [Example 58, N-{4-[trans-2-(benzylamino)cyclopropyl]phenyl}-Nα-[(benzyloxy)carbonyl]-D-phenylalaninamide hydrochloride] | > 10 | > 10 | 0.41
O=C(Nc1ccc([C@@H]2C[C@H]2NCC2CC2)cc1)c1ccc(-c2cc[nH]n2)cc1 (relative stereo) [Example 113, N-(4-{trans-2-[(cyclopropylmethyl)amino]cyclopropyl}phenyl)-4-(1H-pyrazol-3-yl)benzamide hydrochloride] | 5.7 | > 10 | < 0.1
O=C(Nc1ccc([C@@H]2C[C@H]2NCc2ccncc2)cc1)c1ccc(-c2ccccc2)cc1 (relative stereo) [Example 39, N-(4-{trans-2-[(pyridin-4-ylmethyl)amino]-cyclopropyl}-phenyl)biphenyl-4-carboxamide] | > 10 | > 10 | < 0.1
NS(=O)(=O)c1cccc(C(=O)Nc2ccc([C@@H]3C[C@H]3NCC3CC3)cc2)c1 (relative stereo) [Example 145, N-(4-{trans-2-[(cyclopropylmethyl)amino]cyclopropyl}phenyl)-3-sulfamoylbenzamide hydrochloride] | > 10 | > 10 | < 0.1
O=C(Nc1ccc([C@@H]2C[C@H]2NCC2CC2)cc1)c1ccc(OCc2ccccc2)cc1 (relative stereo) [Example 71, 4-(benzyloxy)-N-(4-{trans-2-[(cyclopropylmethyl)amino]cyclopropyl}phenyl)benzamide hydrochloride] | > 10 | > 10 | < 0.1
COc1ccc(CN[C@@H]2C[C@H]2c2ccc(NC(=O)c3ccc(-c4ccccc4)cc3)cc2)cc1OC (relative stereo) [Example 46, N-(4-{trans-2-[(3,4-dimethoxy-benzyl)amino]cyclo-propyl}phenyl)-biphenyl-4-carboxamide] | > 10 | > 10 | < 0.1
CCCCCCCCN[C@@H]1C[C@H]1c1ccc(NC(=O)c2ccccc2)cc1 (relative stereo) [Example 2, N-{4-[trans-2-(octylamino)cyclopropyl]phenyl}benzamide] | 9.3 | > 10 | 0.2
